Source: US10745398B2, “2-(het)aryl-substituted fused heterocycle derivatives as pesticides” (Bayer CropScience Aktiengesellschaft, priority 2015, dated 2020)
One block for each compound: values may come before it.

Key:
[1] = log P (neutral) by HPLC on reversed-phase column (C 18), EEC Directive 79/831 Annex V.A8; type: physicochemical; conditions: HPLC reversed-phase C 18, 55° C., neutral range pH 7.8, ammonium hydrogencarbonate/acetonitrile; for chromatographic logP: reversed-phase HPLC column (C 18)
[2] = test system: L1 larvae of the Australian sheep blowfly (Lucilia cuprina); assay: Lucilia cuprina test; type: in vivo; conditions: application rate 100 ppm, after 2 days
Procedure: (§1) Solvent: dimethyl sulphoxide
(§2) To produce a suitable active compound preparation, 10 mg of active compound are mixed with 0.5 ml of dimethyl sulphoxide, and the concentrate is diluted with water to the desired concentration.
About 20 L1 larvae of the Australian sheep blowfly (Lucilia cuprina) are transferred into a test vessel containing minced horsemeat and the active compound preparation of the desired concentration.
After 2 days, the kill in % is determined. 100% means that all the larvae have been killed; 0% means that no larvae have been killed.

[3] = test system: southern root-knot nematode (Meloidogyne incognita); assay: Meloidogyne incognita test; type: in vivo; conditions: application rate 20 ppm, lettuce, after 14 days
Procedure: Solvent: 125.0 parts by weight of acetone
To produce a suitable preparation of active compound, 1 part by weight of active compound is mixed with the stated amount of solvent and the concentrate is diluted with water to the desired concentration.
Vessels are filled with sand, active compound solution, an egg/larvae suspension of the southern root-knot nematode (Meloidogyne incognita) and lettuce seeds. The lettuce seeds germinate and the plants develop. The galls develop on the roots.
After 14 days, the nematicidal efficacy in % is determined by the formation of galls. 100% means that no galls were found; 0% means that the number of galls on the treated plants corresponds to the untreated control.

[4] = test system: green peach aphid (Myzus persicae); assay: Myzus persicae - spray test; type: in vivo; conditions: application rate 500 g/ha, Chinese cabbage leaf discs, after 5-6 days
Procedure: Solvent: 78 parts by weight of acetone • • 1.5 parts by weight of dimethylformamide
(§3) Emulsifier: alkylaryl polyglycol ether
(§4) To produce a suitable active compound preparation, 1 part by weight of active compound is dissolved with the stated parts by weight of solvent and made up with water containing an emulsifier concentration of 1000 ppm until the desired concentration is attained. To produce further test concentrations, the preparation is diluted with emulsifier-containing water.
Discs of Chinese cabbage leaves (Brassica pekinensis) infested by all stages of the green peach aphid (Myzus persicae) are sprayed with an active compound preparation of the desired concentration.
After 5-6 days, the efficacy in % is determined. 100% means that all the aphids have been killed; 0% means that no aphids have been killed.

[5] = test system: larvae of the mustard beetle (Phaedon cochleariae); assay: Phaedon cochleariae - spray test; type: in vivo; conditions: application rate 500 g/ha, Chinese cabbage leaf discs, after 7 days
Procedure: (§5) Solvent: 78.0 parts by weight of acetone • • 1.5 parts by weight of dimethylformamide
as §3, §4
After 7 days, the efficacy in % is determined. 100% means that all the beetle larvae have been killed; 0% means that no beetle larvae have been killed.

[6] = test system: caterpillars of the armyworm (Spodoptera frugiperda); assay: Spodoptera frugiperda - spray test; type: in vivo; conditions: application rate 500 g/ha, maize leaf discs, after 7 days
Procedure: as §5, §3, §4
Leaf discs of maize (Zea mays) are sprayed with an active compound preparation of the desired concentration and, after drying, populated with caterpillars of the armyworm (Spodoptera frugiperda).
After 7 days, the efficacy in % is determined. 100% means that all the caterpillars have been killed; 0% means that no caterpillar has been killed.

[7] = test system: adult cat fleas (Ctenocephalides felis); assay: Ctenocephalides felis - in vitro contact tests with adult cat fleas; type: in vivo; conditions: application rate 5 μg/cm^2 (500 g/ha), after 48 h
Procedure: For the coating of the test tubes, 9 mg of active compound are first dissolved in 1 ml of acetone p.a. and then diluted to the desired concentration with acetone p.a. 250 μl of the solution are distributed homogeneously on the inner walls and the base of a 25 ml test tube by turning and rocking on an orbital shaker (rocking rotation at 30 rpm for 2 h). With 900 ppm active compound solution and internal surface 44.7 cm^2, given homogeneous distribution, an area-based dose of 5 μg/cm^2 is achieved.
After the solvent has evaporated off, the tubes are populated with 5-10 adult cat fleas (Ctenocephalides felis), sealed with a perforated plastic lid and incubated in a horizontal position at room temperature and ambient humidity. After 48 h, efficacy is determined. To this end, the test tubes are stood upright and the fleas are knocked to the base of the tube. Fleas which remain motionless at the base or move in an uncoordinated manner are considered to be dead or moribund.
100% efficacy means that all the fleas were dead or moribund. 0% efficacy means that no fleas were harmed.

[8] = test system: engorged adult female cattle ticks (Boophilus microplus); assay: Boophilus microplus - injection test; type: in vivo; conditions: application rate 20 μg/animal, assessed after 7 days
Procedure: as §1
To produce a suitable active compound preparation, 10 mg of active compound are mixed with 0.5 ml of solvent and the concentrate is diluted with solvent to the desired concentration.
1 μl of the active compound solution is injected into the abdomen of 5 engorged adult female cattle ticks (Boophilus microplus). The animals are transferred into dishes and kept in a climate-controlled room.
Efficacy is assessed after 7 days by laying of fertile eggs. Eggs which are not visibly fertile are stored in a climate-controlled cabinet until the larvae hatch after about 42 days. An efficacy of 100% means that none of the ticks has laid any fertile eggs; 0% means that all the eggs are fertile.

[9] = test system: unfed adult cat fleas (Ctenocephalides felis); assay: Ctenocephalides felis - oral test; type: in vivo; conditions: application rate 100 ppm in citrated cattle blood, after 2 days
Procedure: as §1
To produce a suitable active compound preparation, 10 mg of active compound are mixed with 0.5 ml of dimethyl sulphoxide. Dilution with citrated cattle blood gives the desired concentration.
About 20 unfed adult cat fleas (Ctenocephalides felis) are placed into a chamber which is closed at the top and bottom with gauze. A metal cylinder whose bottom end is closed with parafilm is placed onto the chamber. The cylinder contains the blood/active compound preparation, which can be imbibed by the fleas through the parafilm membrane.
After 2 days, the kill in % is determined. 100% means that all of the fleas have been killed; 0% means that none of the fleas have been killed.

[10] = test system: adult houseflies (Musca domestica); assay: Musca domestica test; type: in vivo; conditions: application rate 100 ppm, after 2 days
Procedure: as §1, §2
Vessels containing a sponge treated with sugar solution and the active compound preparation of the desired concentration are populated with 10 adult houseflies (Musca domestica).
After 2 days, the kill in % is determined. 100% means that all of the flies have been killed; 0% means that none of the flies have been killed.

[11] = test system: greenhouse red spider mite (Tetranychus urticae); assay: Tetranychus urticae - spray test, OP-resistant; type: in vivo; conditions: application rate 500 g/ha, bean leaf discs, after 6 days
Procedure: as §5, §3, §4
Discs of bean leaves (Phaseolus vulgaris) infested with all stages of the greenhouse red spider mite (Tetranychus urticae) are sprayed with an active compound preparation of the desired concentration.
After 6 days, the efficacy in % is determined. 100% means that all the spider mites have been killed; 0% means that no spider mites have been killed.

chromatographic logP [1]: 2.73
Structure (SMILES): CCS(=O)(=O)c1ccc(-c2ccn(-c3cccnc3)n2)nc1-c1nc2cc(C(F)(F)F)ncc2n1C [Example I-30, 2-{3-(Ethylsulfonyl)-6-[1-(pyridin-3-yl)-1H-pyrazol-3-yl]pyridin-2-yl}-3-methyl-6-(trifluoromethyl)-3H-imidazo[4,5-c]pyridine]
efficacy (kill in %) [2]: 100% | nematicidal efficacy (formation of galls) [3]: 90% | efficacy (aphids killed) [4]: 100% | efficacy (beetle larvae killed) [5]: 100% | efficacy (caterpillars killed) [6]: 100%

Structure (SMILES): CCS(=O)(=O)c1ccc(-n2ncn(-c3ccccc3F)c2=O)nc1-c1nc2cc(C(F)(F)F)ncc2n1C [Example I-18]
log P (neutral) [1]: Example I-18: logP (neutral): 2.73: 1H-NMR(400.0 MHz, d6-DMSO): □ = | efficacy (fleas dead or moribund) [7]: 100% | efficacy (no laying of fertile eggs) [8]: 95% | efficacy (kill in %) [9]: 100% | efficacy (kill in %) [2]: 100% | efficacy (kill in %) [10]: 85% | efficacy (aphids killed) [4]: 90% | efficacy (beetle larvae killed) [5]: 100% | efficacy (caterpillars killed) [6]: 100%

chromatographic logP [1]: 3.52
Structure (SMILES): CCS(=O)(=O)c1ccc(-n2ncn(-c3ccc(Cl)cc3)c2=O)nc1-c1nc2cc(C(F)(F)F)cnc2n1C [Example I-33, 4-(4-Chlorophenyl)-2-{5-(ethylsulfonyl)-6-[3-methyl-6-(trifluoromethyl)-3H-imidazo[4,5-b]pyridin-2-yl]pyridin-2-yl}-2,4-dihydro-3H-1,2,4-triazol-3-one]
nematicidal efficacy (formation of galls) [3]: 100% | efficacy (aphids killed) [4]: 90% | efficacy (beetle larvae killed) [5]: 100% | efficacy (caterpillars killed) [6]: 100% | efficacy (spider mites killed) [11]: 90%

Structure (SMILES): CCS(=O)(=O)c1ccc(-n2ncn(-c3cccnc3)c2=O)nc1-c1nc2cc(C(F)(F)F)ncc2n1C [Example I-17]
log P (neutral) [1]: Example I-17: logP (neutral): 2.06 1H-NMR(400.0 MHz, d6-DMSO): □ = | efficacy (kill in %) [9]: 95% | efficacy (kill in %) [2]: 100% | nematicidal efficacy (formation of galls) [3]: 100% | efficacy (aphids killed) [4]: 90% | efficacy (beetle larvae killed) [5]: 100% | efficacy (spider mites killed) [11]: 90%

Structure (SMILES): CCS(=O)(=O)c1ccc(-n2ccn(-c3ccc(Br)cc3)c2=O)nc1-c1nc2cc(C(F)(F)F)ncc2n1C [Example I-3]
log P (neutral) [1]: Example I-3: logP (neutral): 3.87 ^1H-NMR(400.0 MHz, d6-DMSO): δ = | efficacy (no laying of fertile eggs) [8]: 95% | efficacy (kill in %) [9]: 100% | efficacy (kill in %) [2]: 100% | efficacy (kill in %) [10]: 90% | efficacy (aphids killed) [4]: 90% | efficacy (beetle larvae killed) [5]: 100% | efficacy (caterpillars killed) [6]: 100%

Structure (SMILES): CCS(=O)(=O)c1ccc(-n2ccc(-c3ncccc3Cl)n2)nc1-c1nc2cc(C(F)(F)F)ncc2n1C [Example I-24]
log P (neutral) [1]: Example I-24: logP (neutral): 2.80 1H-NMR(400.0 MHz, d6-DMSO): □ = | efficacy (fleas dead or moribund) [7]: 100% | efficacy (kill in %) [2]: 100% | efficacy (beetle larvae killed) [5]: 100% | efficacy (caterpillars killed) [6]: 100%

Structure (SMILES): CCS(=O)(=O)c1ccc(-n2ncn(-c3ccc(F)cc3)c2=O)nc1-c1nc2cc(C(F)(F)F)ncc2n1C [Example I-8]
log P (neutral) [1]: Example I-8: logP (neutral): 2.75 ^1H-NMR(400.0 MHz, d6-DMSO): δ = | nematicidal efficacy (formation of galls) [3]: 90% | efficacy (aphids killed) [4]: 100% | efficacy (beetle larvae killed) [5]: 100% | efficacy (caterpillars killed) [6]: 100%

Structure (SMILES): CCS(=O)(=O)c1ccc(-n2cnn(-c3ccccc3F)c2=O)nc1-c1nc2cc(C(F)(F)F)cnc2n1C [Example I-32]
log P (neutral) [1]: Example I-32: logP (neutral): 3.52 1H-NMR(400.0 MHz, d6-DMSO): □ = | efficacy (no laying of fertile eggs) [8]: 80% | efficacy (kill in %) [9]: 100% | efficacy (kill in %) [2]: 100% | efficacy (kill in %) [10]: 100% | efficacy (aphids killed) [4]: 90% | efficacy (beetle larvae killed) [5]: 100% | efficacy (caterpillars killed) [6]: 100%
